We go through 14 molecules from PMC9067983, “Identification of highly selective type II kinase inhibitors with chiral peptidomimetic tails” (Journal of Enzyme Inhibition and Medicinal Chemistry, 2022).

Usually IC50 stands for the point on the concentration scale where inhibition reaches its midpoint. Read a low IC50 as greater potency in that assay.

Where a SMILES comes first, the peptide text is derived from it. [ ]: non-standard residue; d: D form. The star is where a group is joined. X1 = Cc1ccc(Nc2ncc3c(n2)N(C)C(=O)N(c2cc(C(=O)*)ccc2C)C3)cn1; Pip = O=C(O)[C@@H]1CCCCN1; Aze = O=C(O)[C@@H]1CCN1; Ac4c = NC1(C(=O)O)CCC1; Ac3c = NC1(C(=O)O)CC1; Aib = CC(C)(N)C(=O)O

In test [1] the target is T1, Lck (Homo sapiens, UniProt P06239).
T1 construct: purchased Reaction Biology Corp
Briefly: In vitro kinase assay (IC50). The format is biochemical. The method, then:
(§1) Full panel kinase profiling and kinase IC50 measurement were performed by using Reaction Biology Corp. (San Diego, USA).

Test [2] deals with T2, c-Src (Homo sapiens, UniProt P12931).
T2 construct: purchased Reaction Biology Corp
The test is described as follows: In vitro kinase assay (IC50). The format is biochemical. The method, then:
as §1

T2 sequence (P12931 whole entry): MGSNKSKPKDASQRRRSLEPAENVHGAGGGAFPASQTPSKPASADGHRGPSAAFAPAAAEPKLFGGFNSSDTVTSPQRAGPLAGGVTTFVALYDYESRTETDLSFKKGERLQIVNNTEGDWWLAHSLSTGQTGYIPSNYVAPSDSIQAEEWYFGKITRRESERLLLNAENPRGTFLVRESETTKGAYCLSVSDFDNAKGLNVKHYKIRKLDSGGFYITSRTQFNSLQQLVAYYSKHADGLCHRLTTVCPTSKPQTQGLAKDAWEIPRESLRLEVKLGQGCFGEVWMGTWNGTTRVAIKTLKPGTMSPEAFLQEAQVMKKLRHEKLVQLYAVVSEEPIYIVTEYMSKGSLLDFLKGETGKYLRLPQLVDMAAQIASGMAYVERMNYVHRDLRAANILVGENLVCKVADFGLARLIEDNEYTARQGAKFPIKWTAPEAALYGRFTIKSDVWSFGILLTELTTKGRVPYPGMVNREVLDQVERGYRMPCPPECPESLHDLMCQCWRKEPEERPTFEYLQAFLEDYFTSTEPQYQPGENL
T1 sequence (P06239 whole entry): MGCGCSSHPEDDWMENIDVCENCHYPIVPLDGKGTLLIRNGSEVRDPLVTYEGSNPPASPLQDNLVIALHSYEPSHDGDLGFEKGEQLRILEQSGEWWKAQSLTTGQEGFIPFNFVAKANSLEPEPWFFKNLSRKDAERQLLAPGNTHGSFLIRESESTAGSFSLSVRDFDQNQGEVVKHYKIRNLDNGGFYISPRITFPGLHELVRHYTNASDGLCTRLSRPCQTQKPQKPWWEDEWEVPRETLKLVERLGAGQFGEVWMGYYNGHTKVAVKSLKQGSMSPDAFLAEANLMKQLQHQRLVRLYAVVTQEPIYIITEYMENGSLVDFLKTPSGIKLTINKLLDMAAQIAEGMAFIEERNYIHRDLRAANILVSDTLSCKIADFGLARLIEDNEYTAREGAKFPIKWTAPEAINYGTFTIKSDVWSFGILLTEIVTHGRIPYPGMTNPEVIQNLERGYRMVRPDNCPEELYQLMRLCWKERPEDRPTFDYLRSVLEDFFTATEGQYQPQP

For `Cc1ccc(Nc2ncc3c(n2)N(C)C(=O)N(c2cc(C(=O)N[C@@H](C(=O)N4CCC[C@@H]4C(=O)NC(C)(C)C(=O)N[C@H](CC(C)C)C(=O)N(C)C)C(C)C)ccc2C)C3)cn1` [7c, (R)-N-(1-(((R)-1-(dimethylamino)-4-methyl-1-oxopentan-2-yl)amino)-2-methyl-1-oxopropan-2-yl)-1-((4-methyl-3-(1-methyl-7-((6-methylpyridin-3-yl)amino)-2-oxo-1,4-dihydropyrimido[4,5-d]pyrimidin-3(2H)-yl)benzoyl)-D-valyl)pyrrolidine-2-carboxamide] (X1-[dV][dP][Aib][dL]-NMe2), in test [1], it took 211 nM to reach half-maximal inhibition (IC50) and the “decrease of Lck/c-Src selectivity compared to 7a” value is greater than 10 fold. This molecule also gave an IC50 in test [2] of 735 nM.

Turning to `Cc1ccc(Nc2ncc3c(n2)N(C)C(=O)N(c2cc(C(=O)N[C@H](C(=O)N4CCC[C@H]4C(=O)NC4(C(=O)N[C@@H](CC(C)C)C(=O)N(C)C)CC4)C(C)C)ccc2C)C3)cn1` [7d, (S)-N-(1-(((S)-1-(dimethylamino)-4-methyl-1-oxopentan-2-yl)carbamoyl)cyclopropyl)-1-((4-methyl-3-(1-methyl-7-((6-methylpyridin-3-yl)amino)-2-oxo-1,4-dihydropyrimido[4,5-d]pyrimidin-3(2H)-yl)benzoyl)-L-valyl)pyrrolidine-2-carboxamide] (X1-VP[Ac3c]L-NMe2), the IC50 in test [1] turned out to be 49 nM; in test [2], 555 nM.

Take `Cc1ccc(Nc2ncc3c(n2)N(C)C(=O)N(c2cc(C(=O)N[C@H](C(=O)N4CCC[C@@H]4C(=O)NC4(C(=O)N[C@@H](CC(C)C)C(=O)N(C)C)CC4)C(C)C)ccc2C)C3)cn1` [7e, (R)-N-(1-(((S)-1-(dimethylamino)-4-methyl-1-oxopentan-2-yl)carbamoyl)cyclopropyl)-1-((4-methyl-3-(1-methyl-7-((6-methylpyridin-3-yl)amino)-2-oxo-1,4-dihydropyrimido[4,5-d]pyrimidin-3(2H)-yl)benzoyl)-L-valyl)pyrrolidine-2-carboxamide] (X1-V[dP][Ac3c]L-NMe2): the half-inhibitory concentration (IC50) in test [1] amounted to 129 nM; in test [2], 2080 nM.

Regarding `Cc1ccc(Nc2ncc3c(n2)N(C)C(=O)N(c2cc(C(=O)N[C@H](C(=O)N4CCC[C@H]4C(=O)NC4(C(=O)N[C@@H](CC(C)C)C(=O)N(C)C)CCC4)C(C)C)ccc2C)C3)cn1` [7f, (S)-N-(1-(((S)-1-(dimethylamino)-4-methyl-1-oxopentan-2-yl)carbamoyl)cyclobutyl)-1-((4-methyl-3-(1-methyl-7-((6-methylpyridin-3-yl)amino)-2-oxo-1,4-dihydropyrimido[4,5-d]pyrimidin-3(2H)-yl)benzoyl)-L-valyl)pyrrolidine-2-carboxamide] (X1-VP[Ac4c]L-NMe2), the IC50 in test [1] worked out at 27.5 nM; in test [2], 658 nM.

As for `Cc1ccc(Nc2ncc3c(n2)N(C)C(=O)N(c2cc(C(=O)N[C@H](C(=O)N4CCC[C@H]4C(=O)NCC(=O)N[C@@H](CC(C)C)C(=O)N(C)C)C(C)C)ccc2C)C3)cn1` [7g, (S)-N-(2-(((S)-1-(dimethylamino)-4-methyl-1-oxopentan-2-yl)amino)-2-oxoethyl)-1-((4-methyl-3-(1-methyl-7-((6-methylpyridin-3-yl)amino)-2-oxo-1,4-dihydropyrimido[4,5-d]pyrimidin-3(2H)-yl)benzoyl)-L-valyl)pyrrolidine-2-carboxamide] (X1-VPGL-NMe2), the IC50 was 40.2 nM in test [1] and 1370 nM in test [2].

As for `Cc1ccc(Nc2ncc3c(n2)N(C)C(=O)N(c2cc(C(=O)N[C@H](C(=O)N4CCC[C@@H]4C(=O)NCC(=O)N[C@@H](CC(C)C)C(=O)N(C)C)C(C)C)ccc2C)C3)cn1` [7h, (R)-N-(2-(((S)-1-(dimethylamino)-4-methyl-1-oxopentan-2-yl)amino)-2-oxoethyl)-1-((4-methyl-3-(1-methyl-7-((6-methylpyridin-3-yl)amino)-2-oxo-1,4-dihydropyrimido[4,5-d]pyrimidin-3(2H)-yl)benzoyl)-L-valyl)pyrrolidine-2-carboxamide] (X1-V[dP]GL-NMe2), the IC50 in test [1] turned out to be 64.4 nM; in test [2] it was 1740 nM.

With `Cc1ccc(Nc2ncc3c(n2)N(C)C(=O)N(c2cc(C(=O)N[C@H](C(=O)N4CCC[C@H]4C(=O)N[C@@H](Cc4ccccc4)C(=O)N[C@@H](CC(C)C)C(=O)N(C)C)C(C)C)ccc2C)C3)cn1` [7i, (S)-N-((S)-1-(((S)-1-(dimethylamino)-4-methyl-1-oxopentan-2-yl)amino)-1-oxo-3-phenylpropan-2-yl)-1-((4-methyl-3-(1-methyl-7-((6-methylpyridin-3-yl)amino)-2-oxo-1,4-dihydropyrimido[4,5-d]pyrimidin-3(2H)-yl)benzoyl)-L-valyl)pyrrolidine-2-carboxamide] (X1-VPFL-NMe2), the results for the IC50 in test [1] and in test [2] were 61.5 nM and 123 nM, respectively.

Take `Cc1ccc(Nc2ncc3c(n2)N(C)C(=O)N(c2cc(C(=O)N[C@H](C(=O)N4CCCC[C@H]4C(=O)NC(C)(C)C(=O)N[C@@H](CC(C)C)C(=O)N(C)C)C(C)C)ccc2C)C3)cn1` [7j, (S)-N-(1-(((S)-1-(dimethylamino)-4-methyl-1-oxopentan-2-yl)amino)-2-methyl-1-oxopropan-2-yl)-1-((4-methyl-3-(1-methyl-7-((6-methylpyridin-3-yl)amino)-2-oxo-1,4-dihydropyrimido[4,5-d]pyrimidin-3(2H)-yl)benzoyl)-L-valyl)piperidine-2-carboxamide] (X1-V[Pip][Aib]L-NMe2): the IC50 in test [1] came out at 18 nM; in test [2] it was 586 nM.

Take `Cc1ccc(Nc2ncc3c(n2)N(C)C(=O)N(c2cc(C(=O)N[C@H](C(=O)N4CC[C@H]4C(=O)NC(C)(C)C(=O)N[C@@H](CC(C)C)C(=O)N(C)C)C(C)C)ccc2C)C3)cn1` [7k, (S)-N-(1-(((S)-1-(dimethylamino)-4-methyl-1-oxopentan-2-yl)amino)-2-methyl-1-oxopropan-2-yl)-1-((4-methyl-3-(1-methyl-7-((6-methylpyridin-3-yl)amino)-2-oxo-1,4-dihydropyrimido[4,5-d]pyrimidin-3(2H)-yl)benzoyl)-L-valyl)azetidine-2-carboxamide] (X1-V[Aze][Aib]L-NMe2): in test [1], the IC50 came out at 302 nM and the “decrease of Lck/c-Src selectivity compared to 7a” value is on record as greater than 10 fold. For the same molecule, in test [2], the IC50 is 921 nM.

As to `Cc1ccc(Nc2ncc3c(n2)N(C)C(=O)N(c2cc(C(=O)N[C@@H](Cc4ccccc4)C(=O)N4CCC[C@H]4C(=O)NC(C)(C)C(=O)N[C@H](C(=O)N(C)C)C(C)C)ccc2C)C3)cn1` [7l, (S)-N-(1-(((S)-1-(dimethylamino)-3-methyl-1-oxobutan-2-yl)amino)-2-methyl-1-oxopropan-2-yl)-1-((4-methyl-3-(1-methyl-7-((6-methylpyridin-3-yl)amino)-2-oxo-1,4-dihydropyrimido[4,5-d]pyrimidin-3(2H)-yl)benzoyl)-L-phenylalanyl)pyrrolidine-2-carboxamide] (X1-FP[Aib]V-NMe2), the figures for the IC50 in test [1] and in test [2] were 155 nM and 1740 nM, respectively.

Turning to `Cc1ccc(Nc2ncc3c(n2)N(C)C(=O)N(c2cc(C(=O)N[C@@H](C)C(=O)N4CCC[C@H]4C(=O)NC(C)(C)C(=O)N[C@H](C(=O)N(C)C)C(C)C)ccc2C)C3)cn1` [7m, (S)-N-(1-(((S)-1-(dimethylamino)-3-methyl-1-oxobutan-2-yl)amino)-2-methyl-1-oxopropan-2-yl)-1-((4-methyl-3-(1-methyl-7-((6-methylpyridin-3-yl)amino)-2-oxo-1,4-dihydropyrimido[4,5-d]pyrimidin-3(2H)-yl)benzoyl)-L-alanyl)pyrrolidine-2-carboxamide] (X1-AP[Aib]V-NMe2), the IC50 in test [1] turned out to be 379 nM; in test [2], 3970 nM.

`Cc1ccc(Nc2ncc3c(n2)N(C)C(=O)N(c2cc(C(=O)N[C@H](C(=O)N4CCC[C@H]4C(=O)NC(C)(C)C(=O)N[C@H](C(=O)N(C)C)C(C)C)C(C)C)ccc2C)C3)cn1` [7n, (S)-N-(1-(((S)-1-(dimethylamino)-3-methyl-1-oxobutan-2-yl)amino)-2-methyl-1-oxopropan-2-yl)-1-((4-methyl-3-(1-methyl-7-((6-methylpyridin-3-yl)amino)-2-oxo-1,4-dihydropyrimido[4,5-d]pyrimidin-3(2H)-yl)benzoyl)-L-valyl)pyrrolidine-2-carboxamide] (X1-VP[Aib]V-NMe2): the IC50 in test [1] was determined as 727 nM; in test [2], 3140 nM.

Turning to `Cc1ccc(Nc2ncc3c(n2)N(C)C(=O)N(c2cc(C(=O)N[C@H](C(=O)N4CCC[C@@H]4C(=O)NC(C)(C)C(=O)N[C@H](C(=O)N(C)C)C(C)C)C(C)C)ccc2C)C3)cn1` [7o, (R)-N-(1-(((S)-1-(dimethylamino)-3-methyl-1-oxobutan-2-yl)amino)-2-methyl-1-oxopropan-2-yl)-1-((4-methyl-3-(1-methyl-7-((6-methylpyridin-3-yl)amino)-2-oxo-1,4-dihydropyrimido[4,5-d]pyrimidin-3(2H)-yl)benzoyl)-L-valyl)pyrrolidine-2-carboxamide] (X1-V[dP][Aib]V-NMe2), the figures for the IC50 in test [1] and in test [2] were 1040 nM and greater than 10000 nM, respectively.

As for `CC[C@H](C)[C@H](NC(=O)c1ccc(C)c(N2Cc3cnc(Nc4ccc(C)nc4)nc3N(C)C2=O)c1)C(=O)N1CCC[C@H]1C(=O)NC(C)(C)C(=O)N[C@@H](CC(C)C)C(=O)N(C)C` [7p, (S)-N-(1-(((S)-1-(dimethylamino)-4-methyl-1-oxopentan-2-yl)amino)-2-methyl-1-oxopropan-2-yl)-1-((4-methyl-3-(1-methyl-7-((6-methylpyridin-3-yl)amino)-2-oxo-1,4-dihydropyrimido[4,5-d]pyrimidin-3(2H)-yl)benzoyl)-L-isoleucyl)pyrrolidine-2-carboxamide] (X1-IP[Aib]L-NMe2), the IC50 was 55.6 nM in test [1] and 329 nM in test [2].
